Here are results for four compounds from US20140088178A1, “COMBINATION OF ANTI-CLUSTERIN OLIGONUCLEOTIDE WITH ANDROGEN RECEPTOR ANTAGONIST FOR THE TREATMENT OF PROSTATE CANCER” (THE UNIVERSITY OF BRITISH COLUMBIA, priority 2011, published 2014).

e = 2'-O-(2-methoxyethyl) (MOE); d = 2'-deoxy (DNA)

The test system of data set [1] is LNCaP cells. The experiment in a line: Autophagy induction. Type of data set: cell-based, human.
Data set [2] concerns clusterin (CLU). The experiment in a line: Western blot of clusterin (CLU) expression after AR pathway inhibition. Type of data set: cell-based, human. As to the method:
The immune complexes were recovered with protein-G sepharose for 2 h and then washed with radioimmunoprecipitation assay buffer (RIPA) at least thrice, centrifuged, and submitted to SDS-PAGE, followed by Western blotting. […] Cells are harvested and performed for western blot analysis.

For data set [3] the following is noted: humans; cited from earlier work.
The subject of data set [4] is CRPC LNCaP xenografts. Description: Castration-resistant LNCaP xenograft in castrated male athymic nude mice. Type of data set: in vivo. Conditions: week 16 from start of treatment; euthanasia for tumour volume exceeding 10% of body weight. The procedure:
The effects of combination treatment on castration-resistant LNCaP tumor growth were assessed in castrated male athymic nude mice. Male athymic nude mice were inoculated with LNCaP cells in Matrigel in two sites of mouse flank lesion. […]. Custirsen (10 mg/kg/each dose) or SCRB (10 mg/kg/each dose) was injected i.p. once daily for the first week and then three times per week. […] Tumor volume was measured once per week. Serum PSA was determined weekly. PSA doubling time (PSAdt) and velocity were calculated by the log-slope method (PSAt−PSAinitial×e^mt). All animal procedures were performed according to the guidelines of the Canadian Council on Animal Care and appropriate institutional certification.
Male athymic mice (Harlan Sprague-Dawley, Inc.) were injected s.c. with 1×10^6 LNCaP cells. When tumors grow in 150 mm^3 and serum PSA was >50 ng/ml, mice are castrated. […] Each experimental group consisted of 13 mice. […] Tumor volume and serum PSA was measured as previously described (Sowery et al., 2008). All animal procedures were performed according to the guidelines of the Canadian Council on Animal Care. Each three mice xenografts were sacrificed at 7 days after start treatment and the rest were harvested the end of the study and snap-frozen in liquid nitrogen. […]

Data set [5] has as its system Akt and p90Rsk phosphorylation. The experiment in a line: Western blot of Akt and p90Rsk phosphorylation. Type of data set: cell-based, human. Conditions: FIG. 42B. As to the method: YB-1 binds to CLU promoter leading to increased CLU expression after ER stress (Shiota et al., 2011). […]. Western blot analysis is done using phospho Akt, phospho ERK, Akt and ERK antibodies. […]. […] After 48 h treatment, western blot analysis is done using phospho Akt, phospho ERK, phospho mTOR, phospho P70S6K, Akt, ERK, mTOR and P70S6K antibodies.

The subject of data set [6] is GRP78, ATF4, IRE1, CHOP and cleaved-ATF6. The experiment in a line: ER stress marker expression after AR1. Type of data set: cell-based. Particulars: concomitant with CLU induction. The source says: ER stress activates a complex intracellular signaling pathway, called the unfolded protein response (UPR), which is tailored to re-establish protein homeostasis (proteostasis) by inhibiting protein translation and promoting ER-associated protein degradation via the ubiquitin-proteasome system (UPS).

Data set [7] deals with CRPC. Conditions: combined with docetaxel chemotherapy; cited from earlier work.
The subject of data set [8] is LNCaP cells. Description: Flow cytometry of apoptotic sub-G1 fraction (propidium iodide staining). Conditions: 500 nmol/L custirsen or ScrB, 10 μmol/L AR1, 48 hrs. Type of data set: cell-based, human. The procedure: After a time course exposure, cell growth was measured by crystal violet assay as previously described (cleave et al., 2005). Detection and quantitation of apoptotic cell cycle population were analyzed by flow-cytometry (Beckman Coulter Epics Elite; Beckman, Inc.) based on 2N and 4N DNA content as previously described (Lamoureux et al., 2011). For CSS condition, LNCaP cells were plated in RPMI with 5% FBS switched to CSS at the next day, and treatment was started same as FBS condition. Each assay was done in triplicate three times.
Combination treatment enhances LNCaP apoptosis in flow cytometry analysis. […] The proportion of cells in sub-G0, G0-G1, S, G2-M is determined by propidium iodide staining. […] P value represents between treatment arms and their respective controls *p<0.05, **p<0.01, ***p<0.001 (Wilcoxon matched-pairs test).

Data set [9] deals with T1, AR (Homo sapiens, UniProt P10275, T878A).
T1 sequence (P10275 1-920 T878A): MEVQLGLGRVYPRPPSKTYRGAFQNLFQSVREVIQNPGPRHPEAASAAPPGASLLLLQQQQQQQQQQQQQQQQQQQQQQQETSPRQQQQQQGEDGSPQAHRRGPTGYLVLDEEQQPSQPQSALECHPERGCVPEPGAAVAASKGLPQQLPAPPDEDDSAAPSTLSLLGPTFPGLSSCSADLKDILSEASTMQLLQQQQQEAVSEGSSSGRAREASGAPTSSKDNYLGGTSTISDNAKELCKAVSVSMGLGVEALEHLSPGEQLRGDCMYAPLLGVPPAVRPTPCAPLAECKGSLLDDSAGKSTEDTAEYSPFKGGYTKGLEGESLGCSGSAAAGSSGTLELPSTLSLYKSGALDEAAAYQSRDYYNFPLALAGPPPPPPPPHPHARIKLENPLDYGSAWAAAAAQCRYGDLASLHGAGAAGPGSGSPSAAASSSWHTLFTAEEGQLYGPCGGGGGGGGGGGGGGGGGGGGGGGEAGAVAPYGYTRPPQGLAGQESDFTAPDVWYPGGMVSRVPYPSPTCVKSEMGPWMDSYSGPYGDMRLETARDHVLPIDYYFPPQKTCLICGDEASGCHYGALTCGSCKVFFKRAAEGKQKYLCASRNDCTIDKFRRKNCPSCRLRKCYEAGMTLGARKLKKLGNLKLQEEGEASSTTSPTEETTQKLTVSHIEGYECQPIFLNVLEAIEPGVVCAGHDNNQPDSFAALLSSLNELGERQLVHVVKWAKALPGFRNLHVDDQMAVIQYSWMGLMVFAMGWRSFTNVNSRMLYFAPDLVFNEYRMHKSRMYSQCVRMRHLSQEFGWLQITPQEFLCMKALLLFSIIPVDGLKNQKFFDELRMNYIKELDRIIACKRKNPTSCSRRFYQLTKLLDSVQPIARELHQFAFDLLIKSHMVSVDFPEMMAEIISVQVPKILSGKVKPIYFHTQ
Description: Western blot of AR protein expression. Particulars: FIG. 17: LNCaP, 500 nM custirsen 48 h, then 10 μM AR1 48 hours.
Description: Cells (1×10^6) were seeded in 10 cm dishes with RPMI medium containing 5% FBS. The next day, cells were transfected with 500 nM custirsen or control for 48 h.
AR expression is detected by western blot. […] “OTR” means cells treated with oligofectamime only.

The test system of data set [10] is AR transcriptional activity. Description: PSA-luciferase reporter assay of R1881 induced AR transcriptional activity. It counts as cell-based, human. Conditions: LNCaP cells; 500 nmol/L custirsen, 10 μmol/L AR1, 1 nmol/L R1881.
Description: Effect of combination treatment on AR transactivation and translocation. […] Cells were harvested, and luciferase activity was determined. Columns represent means of at least three independent experiments done in triplicate. PSA activation was normalized Renilla-luciferase activity.
LNCaP cells were seeded at a density of 5×10^4 in 12-well plates and transfected the following day with custirsen or SCRB. […] Reporter assays were normalized to Renilla and luciferase activity expressed by Firefly to Renilla ratio in arbitrary light units. All experiments were carried out in triplicate wells and repeated five times using different preparations of plasmids.
The effects of combination treatment on androgen-induced, AR-mediated gene activation were evaluated.

Regarding `CNC(=O)c1ccc(N2C(=S)N(c3ccc(C#N)c(C(F)(F)F)c3)C(=O)C2(C)C)cc1F` [AR1, 4-(3-(4-cyano-3-(trifluoromethyl)phenyl)-5,5-dimethyl-4-oxo-2-thioxoimidazolidin-1-yl)-2-fluoro-N-methylbenzamide], in data set [1], the autophagy entry is “induces autophagy”. Further, in data set [2] (LNCaP, 10 μmol/L for 48 hrs, 5% FBS or 5% CSS, western blot), the clusterin protein expression result is listed as “strongly increases”. For the same compound, in [3], the maximum tolerated dose is 240 mg/day and the side effects entry was “fatigue”. In [4], the overall survival entry is “about 40%”. For the same compound, in data set [5], the “Akt and p90Rsk phosphorylation” value is on record as “increases”. Further, the ER stress markers result in data set [6] was “up-regulation”.
Consider “custirsen: antisense oligonucleotide reducing clusterin expression, CAGCAGCAGAGTCTTCATCAT (Seq. ID No.: 3), phosphorothioate backbone, 2′-O-methoxyethyl at nucleotides 1-4 and 18-21 (sugars from the 5' end e4 d13 e4, all phosphorothioate, methylation of C not given here; listed as Homo sapiens)”, for which, in [7], the HR is 0.50, the “gain in overall survival” value is listed as 7 month and the reduced death rate was 50%. For the same compound, the “apoptosis (sub-G1 fraction)” value in data set [8] worked out at 20%. Besides, in data set [9], the “reduction of AR protein expression” value is given as “no effect”. Also, the “reduction of R1881 induced AR transcriptional activity (PSA luciferase transactivation)” value in data set [10] amounted to 90%.
`CC(=O)O[C@@H]1[C@@H](OC(C)=O)[C@@H](O)[C@H](Oc2c(-c3ccc(O)cc3)oc3cc(O)cc(O)c3c2=O)O[C@H]1C` [SL101]: in data set [2] (inhibitor added with AR1), the “effect on AR1 induced up-regulation of CLU” value is given as “abrogates”.
Regarding “ScrB: scrambled antisense oligonucleotide control, 5′-CAGCGCTGACAACAGTTTCAT-3′ (SEQ ID NO: 44) (2'-O-methoxyethyl modified control oligonucleotide, pattern not given here, further chemistry not given here)”, the “apoptosis (sub-G1 fraction)” value in data set [8] amounted to 15.2%.
